Reference: patent publication US12570639B2, “Tetrahydroquinoline derivative and medicinal use thereof” (Toray Industries, Inc., priority 2020, dated 2026)

How the values were obtained:
[1] = In vitro radical scavenging action (DPPH method); settings: 30 minutes at room temperature, maximum concentration 100 μmol/L
Protocol: Radical scavenging action was evaluated using the DPPH method in the compound of Comparative Example 1, which is a tetrahydroquinoxaline derivative, and in the tetrahydroquinoline derivative (I) or a pharmaceutically acceptable salt thereof. The DPPH method was performed using an antioxidant capacity measurement kit (Dojindo Laboratories).
A test compound was dissolved in DMSO, and the resulting solution was then mixed with an assay buffer and a DPPH solution, which are included in the kit, to a total volume of 200 μL to obtain a final concentration of 10% DMSO, and the reaction was allowed to proceed. Wells added with 100 μmol/L ferrostatin-1, a radical scavenger, were grouped as “control,” and wells added with not test compound were grouped as “background.” The test compound was serially diluted 3-fold starting from a maximum concentration of 100 μmol/L, and the diluted test compound (1.2, 3.7, 11.1, 33.3, or 100 μmol/L) was added and allowed to react at room temperature. Thirty minutes after the reaction, the absorbance at 517 nm was measured, and the average absorbance value was calculated (N=2). The radical scavenging action of the test compound (hereinafter referred to as radical scavenging rate, %) was calculated based on the equation 2 below. The EC50 value of the test compound was calculated from the radical scavenging rate. Radical scavenging rate (%)=[1−{(Average absorbance value at 517 nm measured when a test compound is added)−(Average absorbance value at 517 nm measured in the background)}/{(Average absorbance value at 517 nm measured in the control)−(Average absorbance value at 517 nm measured in the background)}]×100 Equation 2
A note “no detection of radical scavenging action (N.D.),” is given to compounds with a EC50 of >100 μmol/L.

[2] = system: Human fibrosarcoma cells (HT-1080 cells); assay: In vitro inhibitory action against ferroptosis (Erastin-induced cell death, Cell Counting Kit-8); assay type: cell-based; settings: Erastin 3 μmol/L, 24 hours
Protocol: The inhibitory action against ferroptosis of the tetrahydroquinoline derivative (I) or a pharmaceutically acceptable salt thereof was evaluated with Human fibrosarcoma cells (HT-1080 cells), by using, as an index, the inhibitory action against the cell death induced by treatment with a ferroptosis inducer, Erastin.
HT-1080 cells (ATCC) were cultured in a mixture (hereinafter referred to as vehicle) composed of DMEM/F12 (Thermo Fisher Scientific, Inc.), a final concentration of 10% fetal bovine serum (Thermo Fisher Scientific, Inc.), and a final concentration of 1% penicillin-streptomycin solution (Nacalai Tesque, Inc.). Cells were seeded into 96-well plates (Corning Inc.) at 5×10^4 cells/well and cultured overnight.
A test compound was dissolved in DMSO, and the resulting solution was diluted in the vehicle to a final concentration of 1% DMSO and then used. […] Thirty minutes after the addition of the test compound, Erastin (Cayman Chemical Co.) diluted in the vehicle at a final concentration of 3 μmol/L was added to wells. The wells added with the test compound and Erastin were grouped as “test compound,” and the wells added with no test compound and no Erastin were grouped as “background,” and the wells added with no test compound but with Erastin were grouped as “control.” Twenty-four hours after the addition of Erastin, 5 μL of Cell Counting Kit-8 (Dojindo Laboratories) was added to each well and incubated for 4 hours, and the absorbance at 450 nm was then measured for each well (N=2). […] Ferroptosis inhibition rate (%)=[1−{(Average absorbance value at 450 nm measured when a test compound is added)−(Average absorbance value at 450 nm measured in the background)}/{(Average absorbance value at 450 nm measured in the control)−(Average absorbance value at 450 nm measured in the background)}]×100 Equation 1

[3] = evaluation concentration 30 μmol/L
[4] = evaluation concentration 50 μmol/L

Row | EC50 [1] | SMILES | Ferroptosis inhibition rate (%) [2, 3] | further results
1 | 8.54 µM | c1ccc(C2CNc3ccccc3N2)cc1 (stereo not drawn) [Comparative Example 1, 2-phenyl-1,2,3,4-tetrahydroquinoxaline, reference compound] |  | Radical-scavenging action EC50 (μmol/L) [1]: exhibited radical scavenging action
2 | > 100 µM | c1ccc([C@H]2CCc3ccccc3N2)cc1 [Example 2, (R)-2-phenyl-1,2,3,4-tetrahydroquinoline] | 117.4% | 
3 | > 100 µM | c1ccc([C@@H]2CCc3ccccc3N2)cc1 [Example 3, (S)-2-phenyl-1,2,3,4-tetrahydroquinoline] | 110.2% | 
4 | > 100 µM | CS(=O)(=O)c1ccc(C2CCc3ccccc3N2)cc1 (stereo not drawn) [Example 16, 2-(4-(methylsulfonyl)phenyl)-1,2,3,4-tetrahydroquinoline] |  | Ferroptosis inhibition rate (%) [2, 4]: 90.31%
5 | > 100 µM | CC(=O)Nc1ccc(C2CCc3ccccc3N2)cc1 (stereo not drawn) [Example 21, N-(4-(1,2,3,4-tetrahydroquinolin-2-yl)phenyl)acetamide] | 88.33% | 
6 | > 100 µM | Fc1ccc(C2CCc3ccccc3N2)cc1 (stereo not drawn) [Example 26, 2-(4-fluorophenyl)-1,2,3,4-tetrahydroquinoline] |  | Ferroptosis inhibition rate (%) [2, 4]: 107.7%
7 | > 100 µM | FC(F)(F)c1ccc(C2CCc3ccccc3N2)cc1 (stereo not drawn) [Example 29, 2-(4-(trifluoromethyl)phenyl)-1,2,3,4-tetrahydroquinoline] |  | Ferroptosis inhibition rate (%) [2, 4]: 95.38%
8 |  | O=C(Cc1ccc2c(c1)CCC(c1ccccc1)N2)NCC1CC1 (stereo not drawn) [Example 153, N-(cyclopropylmethyl)-2-(2-phenyl-1,2,3,4-tetrahydroquin-olin-6-yl)acetamide] | 110.1% | 
9 |  | O=C(Cc1ccc2c(c1)CCC(c1ccccc1)N2)NCC1COC1 (stereo not drawn) [Example 154, N-(oxetan-3-ylmethyl)-2-(2-phenyl-1,2,3,4-tetrahydroquin-olin-6-yl)acetamide] | 114.6% | 
10 |  | O=C(Cc1ccc2c(c1)CCC(c1ccccc1)N2)N1CCCC1 (stereo not drawn) [Example 156, 2-(2-phenyl-1,2,3,4-tetrahydroquinolin-6-yl)-1-(pyrrolidin-1-yl)ethan-1-one] | 57.76% | 
11 |  | CNC(=O)Cc1ccc2c(c1)CCC(c1ccccc1)N2 (stereo not drawn) [Example 159, N-methyl-2-(2-phenyl-1,2,3,4-tetrahydroquinolin-6-yl)acetamide] | 76.27% | 
12 |  | c1ccc(C2CNc3ccccc3C2)cc1 (stereo not drawn) [Example 162, 3-phenyl-1,2,3,4-tetrahydroquinoline] |  | Ferroptosis inhibition rate (%) [2, 4]: 108.4%
13 |  | Clc1ccc2c(c1)CC(c1ccccc1)CN2 (stereo not drawn) [Example 163, 6-chloro-3-phenyl-1,2,3,4-tetrahydroquinoline] | 89.32% | 
14 |  | Clc1ccc2c(c1)NCC(c1ccccc1)C2 (stereo not drawn) [Example 164, 7-chloro-3-phenyl-1,2,3,4-tetrahydroquinoline] | 72.33% | 
15 |  | OCc1ccc(C2CNc3ccccc3C2)cc1 (stereo not drawn) [Example 165, (4-(1,2,3,4-tetrahydroquinolin-3-yl)phenyl)methanol] | 96.77% | 
16 |  | NC(=O)c1ccc(C2CNc3ccccc3C2)cc1 (stereo not drawn) [Example 166, 4-(1,2,3,4-tetrahydroquinolin-3-yl)benzamide] | 96.52% | 
17 |  | NS(=O)(=O)c1ccc(C2CNc3ccccc3C2)cc1 (stereo not drawn) [Example 167, 4-(1,2,3,4-tetrahydroquinolin-3-yl)benzenesulfonamide] | 76.82% | 
18 |  | CC(=O)Nc1ccc(C2CNc3ccccc3C2)cc1 (stereo not drawn) [Example 168, N-(4-(1,2,3,4-tetrahydroquinolin-3-yl)phenyl)acetamide] | 86.46% | 
19 |  | CS(=O)(=O)c1ccc(C2CNc3ccccc3C2)cc1 (stereo not drawn) [Example 169, 3-(4-(methylsulfonyl)phenyl)-1,2,3,4-tetrahydroquinoline] | 85.58% | 
20 |  | c1cncc(C2CNc3ccccc3C2)c1 (stereo not drawn) [Example 170, 3-(pyridin-3-yl)-1,2,3,4-tetrahydroquinoline] | 93.41% | 
